Measured values: patent US11208400B2, “Substituted 6-(1H-pyrazol-1-yl)pyrimidin-4-amine derivatives and uses thereof” (Bayer Aktiengesellschaft, priority 2016, dated 2021)

Biological target: T1, human Npt2a (Homo sapiens, UniProt Q06495)
T1 construct: expressed in transfected cells
T1 sequence (Q06495 1-639): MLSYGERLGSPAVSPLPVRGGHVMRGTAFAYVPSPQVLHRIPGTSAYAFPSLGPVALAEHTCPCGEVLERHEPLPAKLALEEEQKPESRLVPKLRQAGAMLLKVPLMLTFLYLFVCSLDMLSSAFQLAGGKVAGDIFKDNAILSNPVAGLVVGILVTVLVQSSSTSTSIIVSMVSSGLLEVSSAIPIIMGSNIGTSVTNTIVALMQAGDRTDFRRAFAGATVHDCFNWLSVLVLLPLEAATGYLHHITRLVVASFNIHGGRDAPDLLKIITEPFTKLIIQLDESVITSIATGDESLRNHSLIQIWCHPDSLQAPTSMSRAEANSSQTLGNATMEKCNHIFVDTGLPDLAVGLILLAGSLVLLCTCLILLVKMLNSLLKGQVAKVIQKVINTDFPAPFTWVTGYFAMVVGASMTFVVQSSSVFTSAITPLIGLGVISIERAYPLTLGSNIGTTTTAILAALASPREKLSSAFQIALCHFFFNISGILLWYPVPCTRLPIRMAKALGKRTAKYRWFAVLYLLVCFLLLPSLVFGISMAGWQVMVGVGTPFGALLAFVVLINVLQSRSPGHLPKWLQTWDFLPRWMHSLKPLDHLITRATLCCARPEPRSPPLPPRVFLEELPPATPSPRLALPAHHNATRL
Test: Npt2a activity cell based assay, membrane potential dye, CHO T-REx hNpt2a cells
Conditions: doxycycline-induced, depolarization by sodium phosphate influx, average or median values if tested more than once
Procedure, shortened: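 Doxycycline-induced (0.5 μg/mL, 24 h) CHO T-REx cells were loaded with membrane potential dye in sodium-free NHE buffer (pH 7.4) and exposed to compound (50 μM–1 nM, 5 min, room temperature).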

SMILES | IC50 [nM]
COc1ccc(-c2nn(CC3CC3)c(Nc3cc(-n4nc(C)c(C(F)(F)F)c4C)ncn3)c2C)cc1 [Example 486, N-[1-(cyclopropylmethyl)-3-(4-methoxyphenyl)-4-methyl-1H-pyrazol-5-yl]-6-[3,5-dimethyl-4-(trifluoromethyl)-1H-pyrazol-1-yl]pyrimidin-4-amine] | 59
CCc1c(Nc2cc(-n3cccn3)ncn2)nn(C)c1-c1ccc(F)cc1 [Example 245, N-[4-ethyl-5-(4-fluorophenyl)-1-methyl-1H-pyrazol-3-yl]-6-(1H-pyrazol-1-yl)pyrimidin-4-amine] | 660
Cc1cc(C)n(-c2cc(Nc3c(C)c(-c4ccc(Cl)cc4)nn3CC3CC3)ncn2)n1 [Example 312, N-[3-(4-chlorophenyl)-1-(cyclopropylmethyl)-4-methyl-1H-pyrazol-5-yl]-6-(3,5-dimethyl-1H-pyrazol-1-yl)pyrimidin-4-amine] | 10
Cc1cc(C)n(-c2cc(Nc3c(C)c(-c4ccc(Br)cc4)nn3C)ncn2)n1 [Example 260, N-[3-(4-bromophenyl)-1,4-dimethyl-1H-pyrazol-5-yl]-6-(3,5-dimethyl-1H-pyrazol-1-yl)pyrimidin-4-amine] | 140
COC(C)c1c(C)nn(-c2cc(Nc3c(C)c(-c4ccc(F)cc4)nn3CC3CC3)ncn2)c1C (single isomer, unassigned) [Example 327, N-[1-(cyclopropylmethyl)-3-(4-fluorophenyl)-4-methyl-1H-pyrazol-5-yl]-6-{4-[1-methoxyethyl]-3,5-dimethyl-1H-pyrazol-1-yl}pyrimidin-4-amine] | 4
CCOC(=O)c1c(C)nn(-c2cc(Nc3nn(C)c(-c4ccc(C#N)cc4)c3C)ncn2)c1C [Example 299, ethyl 1-(6-{[5-(4-cyanophenyl)-1,4-dimethyl-1H-pyrazol-3-yl]amino}pyrimidin-4-yl)-3,5-dimethyl-1H-pyrazole-4-carboxylate] | 5
COc1c(C)nn(-c2cc(Nc3nn(C)c(-c4ccc(F)cc4)c3C)ncn2)c1C [Example 434, N-[5-(4-fluorophenyl)-1,4-dimethyl-1H-pyrazol-3-yl]-6-(4-methoxy-3,5-dimethyl-1H-pyrazol-1-yl)pyrimidin-4-amine] | 7
CCc1c(-c2ccc(C#N)cc2)nn(CC2CC2)c1Nc1cc(-n2nc(C)c(Cl)c2C(F)F)ncn1 [Example 164, 4-[5-({6-[4-chloro-5-(difluoromethyl)-3-methyl-1H-pyrazol-1-yl]pyrimidin-4-yl}amino)-1-(cyclopropylmethyl)-4-ethyl-1H-pyrazol-3-yl]benzonitrile] | 11
CCc1c(Nc2cc(-n3nc(C)c(Cl)c3C(F)F)ncn2)nn(C)c1-c1ccc(F)cc1 [Example 270, 6-[4-chloro-5-(difluoromethyl)-3-methyl-1H-pyrazol-1-yl]-N-[4-ethyl-5-(4-fluorophenyl)-1-methyl-1H-pyrazol-3-yl]pyrimidin-4-amine] | 12
Cc1nn(-c2cc(Nc3c(C)c(-c4ccc(F)cc4)nn3CC3CC3)ncn2)c(C)c1C(O)C(F)(F)F (single isomer, unassigned) [Example 376, 1-[1-(6-{[1-(cyclopropylmethyl)-3-(4-fluorophenyl)-4-methyl-1H-pyrazol-5-yl]amino}pyrimidin-4-yl)-3,5-dimethyl-1H-pyrazol-4-yl]-2,2,2-trifluoroethanol] | 8
CCc1c(Nc2cc(-n3nc(C)c(CCO)c3C)ncn2)nn(C)c1-c1ccc(F)cc1 [Example 92, 2-[1-(6-{[4-ethyl-5-(4-fluorophenyl)-1-methyl-1H-pyrazol-3-yl]amino}pyrimidin-4-yl)-3,5-dimethyl-1H-pyrazol-4-yl]ethanol] | 820
CCc1c(Nc2cc(-n3nc4c(c3O)CCCC4)ncn2)n[nH]c1-c1ccc(F)cc1 [Example 30, 2-(6-{[4-ethyl-5-(4-fluorophenyl)-1H-pyrazol-3-yl]amino}pyrimidin-4-yl)-4,5,6,7-tetrahydro-2H-indazol-3-ol] | 620
Cc1ccc(-c2nn(C)c(Nc3cc(-n4nc(C)c(C(F)(F)F)c4C)ncn3)c2C)cn1 [Example 530, N-[1,4-dimethyl-3-(6-methylpyridin-3-yl)-1H-pyrazol-5-yl]-6-[3,5-dimethyl-4-(trifluoromethyl)-1H-pyrazol-1-yl]pyrimidin-4-amine] | 33
CCc1nn(C)c(Nc2cc(-n3nc(C)cc3C)ncn2)c1-c1ccc(F)cc1 [Example 35, 6-(3,5-dimethyl-1H-pyrazol-1-yl)-N-[3-ethyl-4-(4-fluorophenyl)-1-methyl-1H-pyrazol-5-yl]pyrimidin-4-amine] | 1400
CCOC(=O)c1c(C)nn(-c2cc(Nc3c(C)c(-c4ccc(OC(F)(F)F)cc4)nn3CC3CC3)ncn2)c1C [Example 284, ethyl 1-[6-({1-(cyclopropylmethyl)-4-methyl-3-[4-(trifluoromethoxy)phenyl]-1H-pyrazol-5-yl}amino)pyrimidin-4-yl]-3,5-dimethyl-1H-pyrazole-4-carboxylate] | 25
Cc1nn(-c2cc(Nc3nn(C)c(-c4ccc(OC(F)(F)F)cc4)c3C)ncn2)c(C)c1Cl [Example 117, 6-(4-chloro-3,5-dimethyl-1H-pyrazol-1-yl)-N-{1,4-dimethyl-5-[4-(trifluoromethoxy)phenyl]-1H-pyrazol-3-yl}pyrimidin-4-amine] | 19
CCc1c(-c2ccc(C#N)cc2)nn(C)c1Nc1cc(-n2nc(C)cc2C)ncn1 [Example 209, 4-(5-{[6-(3,5-dimethyl-1H-pyrazol-1-yl)pyrimidin-4-yl]amino}-4-ethyl-1-methyl-1H-pyrazol-3-yl)benzonitrile] | 18
Cc1nn(-c2cc(Nc3c(C)c(-c4ccc(C#N)cc4)nn3C)ncn2)c(C)c1C(C)(C)O [Example 298, 4-[5-({6-[4-(2-hydroxypropan-2-yl)-3,5-dimethyl-1H-pyrazol-1-yl]pyrimidin-4-yl}amino)-1,4-dimethyl-1H-pyrazol-3-yl]benzonitrile] | 17
Cc1cc(C)n(-c2cc(Nc3cn(-c4ccc(F)cc4)nc3C)ncn2)n1 [Example 77, 6-(3,5-dimethyl-1H-pyrazol-1-yl)-N-[1-(4-fluorophenyl)-3-methyl-1H-pyrazol-4-yl]pyrimidin-4-amine] | 2230
COc1c(-c2ccc(C#N)cc2)nn(CC2CC2)c1Nc1cc(-n2nc(C)c(C(C)O)c2C)ncn1 (single isomer, unassigned) [Example 332, 4-{1-(cyclopropylmethyl)-5-[(6-{4-[1-hydroxyethyl]-3,5-dimethyl-1H-pyrazol-1-yl}pyrimidin-4-yl)amino]-4-methoxy-1H-pyrazol-3-yl}benzonitrile] | 1900
Cc1nn(-c2cc(Nc3c(C)c(-c4ccc(F)cc4)nn3CC3CC3)ncn2)c(C)c1C(C)O (single isomer, unassigned) [Example 329, 1-[1-(6-{[1-(cyclopropylmethyl)-3-(4-fluorophenyl)-4-methyl-1H-pyrazol-5-yl]amino}pyrimidin-4-yl)-3,5-dimethyl-1H-pyrazol-4-yl]ethanol] | 67
COc1ccc(-c2nn(C)c(Nc3cc(-n4nc(C)cc4C(F)F)ncn3)c2C)cn1 [Example 499, 6-[5-(difluoromethyl)-3-methyl-1H-pyrazol-1-yl]-N-[3-(6-methoxypyridin-3-yl)-1,4-dimethyl-1H-pyrazol-5-yl]pyrimidin-4-amine] | 3150
